Measured values taken from publication PMC10728895, “Stapled Phd Peptides Inhibit Doc Toxin Induced Growth Arrest in Salmonella” (ACS Chemical Biology, 2023).
Positions of bridges follow the written chain, without caps; N, C: chain ends. Non-standard residues stand in square brackets, D forms with d. Residues, ends and D or L forms follow the SMILES beside them. S5 = C=CCCC[C@](C)(N)C(=O)O; Nle = CCCC[C@H](N)C(=O)O

What was measured:
[1] = tested on: DocSTm (phosphorylation of EF-TuSTm); experiment: Dot blot EF-Tu phosphorylation assay; format: biochemical, Salmonella Typhimurium; conditions: DocSTm 1 μM, EF-TuSTm 3 μM, peptide 10 μM to 5 nM (3-fold dilutions), 16 h RT, dot blot anti-phosphothreonine; compared at three times the DocSTm concentration; two independent experiments
Experimental: Samples were prepared in assay buffer [50 mM HEPES (pH 7.5), 25 mM (NH4)2SO4, 2 mM TCEP, 2 mM MgCl2, and 1 mM ATP] with a final concentration of recombinant Doc at 1 μM, recombinant EF-Tu at 3 μM, and varying concentrations of synthetic Phd peptides (final concentrations: 10 μM to 5 nM). EF-Tu (3 μM) in assay buffer was used as a negative control (no Doc and Phd peptide), while EF-Tu (3 μM) with Doc (1 μM) in assay buffer was used as a positive control (no Doc inhibitor). The final sample volume was 10 μL. Samples were incubated for 16 h at RT and subsequently spotted on a nitrocellulose membrane. Phosphorylated EF-Tu was detected by immunodecoration using a rabbit monoclonal antiphosphothreonine antibody (Abcam, ab218195) at 1:2000 dilution (1 h at 4 °C), followed by incubation with a goat antirabbit IgG (H + L) HRP conjugate antibody (Advansta) at 1:10,000 dilution (1 h at RT). Chemiluminescence was developed using the HRP Luminata Kit (Merck, WBLUR0100) and captured with an ImageQuant LAS4000 Western blot imaging system (GE HealthCare). Each peptide was tested in two independent experiments.

[2] = tested on: DocSTm toxin; conditions: DocSTm 5 μM, peptide 50 μM; for Average Tm of DocSTm in the presence of peptide: pH 8.0, average ± SD, replicates 3-48 (Table S3)
Experimental: The thermal shift assay was performed using a Mx3005P qPCR System (Agilent) collecting fluorescence data with a temperature ramp of 25 to 95 °C. Samples were prepared in a buffer containing 20 mM K2HPO4 and 50 mM (NH4)2SO4 at pH 8.0, with a final concentration of recombinant Doc protein at 5 μM and Phd peptides at 50 μM. SYPRO Orange dye (Sigma-Aldrich, 5000X stock in DMSO) was used to monitor protein denaturation in a final concentration of 3×. The final sample volume was 20 μL. Each condition was prepared in triplicate in each independent experiment. The melting curves were plotted using GraphPad Prism 9 (GraphPad Software, USA), and the melting temperatures were obtained by fitting the sigmoidal section of the curves to a Boltzmann sigmoid function. For the calculation of thermal shifts ΔTm, the average melting temperature of free DocSTm toxin as determined in the respective peptide measurement cycles was subtracted from the average melting temperature of DocSTm in the presence of the peptide (Table S3).

Compound | Inhibition of EF-TuSTm phosphorylation by DocSTm (concentration needed for full inhibition) [1] | Average Tm of DocSTm in the presence of peptide [2] [°C] | ΔTm (thermal shift) of DocSTm in the presence of peptide ([2]; SYPRO Orange 3×, 20 mM K2HPO4, 50 mM (NH4)2SO4, pH 8.0, average Tm with peptide minus average Tm of free DocSTm, mean ± SD)
CCCC[C@H](NC(=O)[C@H](Cc1c[nH]c2ccccc12)NC(C)=O)C(=O)N[C@@H](CCCNC(=N)N)C(=O)N[C@@]1(C)CCCC=CCCC[C@@](C)(C(=O)N[C@H](C(=O)N[C@@H](CCCC)C(=O)N[C@@H](CCCNC(=N)N)C(=O)N[C@H](C(=O)N[C@@H](Cc2c[nH]cn2)C(=O)NCC(=O)N[C@@H](CC(N)=O)C(=O)N[C@@H](CCC(=O)O)C(=O)N[C@@H](CC(C)C)C(=O)N[C@@H](CCCNC(=N)N)C(=O)N[C@@H](CCC(=O)O)C(=O)N[C@@H](CC(C)C)C(=O)N[C@@H](C)C(=O)N[C@@H](CC(=O)O)C(=O)N[C@@H](CCCCN)C(=O)O)C(C)C)[C@@H](C)CC)NC(=O)[C@H](CCCNC(=N)N)NC(=O)[C@H](Cc2ccccc2)NC(=O)[C@H](CCC(=O)O)NC1=O [Peptide 20] (Ac-W[Nle]R[S5]EFR[S5]I[Nle]RVHGNELRELADK-OH; staple 4-8) | required a higher concentration to achieve full inhibition | 60.4 ± 0.4 | –
CCCC[C@H](NC(=O)[C@H](Cc1c[nH]c2ccccc12)NC(C)=O)C(=O)N[C@@H](CCCNC(=N)N)C(=O)N[C@@H](CC(N)=O)C(=O)N[C@@H](CCC(=O)O)C(=O)N[C@@H](Cc1ccccc1)C(=O)N[C@@H](CCCNC(=N)N)C(=O)N[C@@H](C)C(=O)N[C@H](C(=O)N[C@@H](CCCC)C(=O)N[C@@H](CCCNC(=N)N)C(=O)N[C@H](C(=O)N[C@@H](Cc1c[nH]cn1)C(=O)NCC(=O)N[C@@H](CC(N)=O)C(=O)N[C@@H](CCC(N)=O)C(=O)N[C@@H](CC(C)C)C(=O)N[C@@H](CCCNC(=N)N)C(=O)N[C@@H](CCC(=O)O)C(=O)N[C@@H](CC(C)C)C(=O)N[C@@H](C)C(=O)N[C@@H](CC(N)=O)C(=O)N[C@@H](CCCCN)C(=O)O)C(C)C)[C@@H](C)CC [Peptide 28] (Ac-W[Nle]RNEFRAI[Nle]RVHGNQLRELANK-OH) | – | 62.1 ± 0.2 | –
CCCC[C@H](NC(=O)[C@H](Cc1c[nH]c2ccccc12)NC(C)=O)C(=O)N[C@@H](CCCNC(=N)N)C(=O)N[C@@H](CC(N)=O)C(=O)N[C@@H](CCC(N)=O)C(=O)N[C@@H](Cc1ccccc1)C(=O)N[C@@H](CCCNC(=N)N)C(=O)N[C@@H](C)C(=O)N[C@H](C(=O)N[C@@H](CCCC)C(=O)N[C@@H](CCCNC(=N)N)C(=O)N[C@H](C(=O)N[C@@H](Cc1c[nH]cn1)C(=O)NCC(=O)N[C@@H](CC(N)=O)C(=O)N[C@@H](CCC(N)=O)C(=O)N[C@@H](CC(C)C)C(=O)N[C@@H](CCCNC(=N)N)C(=O)N[C@@H](CCC(=O)O)C(=O)N[C@@H](CC(C)C)C(=O)N[C@@H](C)C(=O)N[C@@H](CC(N)=O)C(=O)N[C@@H](CCCCN)C(=O)O)C(C)C)[C@@H](C)CC [Peptide 24] (Ac-W[Nle]RNQFRAI[Nle]RVHGNQLRELANK-OH) | – | 54.3 ± 1.6 | –
CCCC[C@H](NC(=O)[C@H](Cc1c[nH]c2ccccc12)NC(C)=O)C(=O)N[C@@H](CC(=O)O)C(=O)N[C@@H](CC(=O)O)C(=O)N[C@@H](CCC(=O)O)C(=O)N[C@@H](Cc1ccccc1)C(=O)N[C@@H](C)C(=O)N[C@@H](C)C(=O)N[C@H](C(=O)N[C@@H](CCCC)C(=O)N[C@@H](C)C(=O)N[C@H](C(=O)N[C@@H](Cc1c[nH]cn1)C(=O)NCC(=O)N[C@@H](CC(N)=O)C(=O)N[C@@H](CCC(=O)O)C(=O)N[C@@H](CC(C)C)C(=O)N[C@@H](CCCNC(=N)N)C(=O)N[C@@H](CCCNC(=N)N)C(=O)N[C@@H](CC(C)C)C(=O)N[C@@H](C)C(=O)N[C@@H](CC(=O)O)C(=O)N[C@@H](CCCCN)C(=O)O)C(C)C)[C@@H](C)CC [Peptide 11] (Ac-W[Nle]DDEFAAI[Nle]AVHGNELRRLADK-OH) | – | 73.5 ± 1.3 | –
CCCC[C@H](NC(=O)[C@H](Cc1c[nH]c2ccccc12)NC(C)=O)C(=O)N[C@@H](CC(=O)O)C(=O)N[C@@H](CC(=O)O)C(=O)N[C@@H](CCC(=O)O)C(=O)N[C@@H](Cc1ccccc1)C(=O)N[C@@H](C)C(=O)N[C@@H](C)C(=O)N[C@H](C(=O)N[C@@H](CCCC)C(=O)N[C@@H](C)C(=O)N[C@H](C(=O)N[C@@H](Cc1c[nH]cn1)C(=O)NCC(=O)N[C@@H](CC(N)=O)C(=O)N[C@@H](CCCNC(=N)N)C(=O)N[C@@H](CC(C)C)C(=O)N[C@@H](CCCNC(=N)N)C(=O)N[C@@H](CCC(=O)O)C(=O)N[C@@H](CC(C)C)C(=O)N[C@@H](C)C(=O)N[C@@H](CC(=O)O)C(=O)N[C@@H](CCCCN)C(=O)O)C(C)C)[C@@H](C)CC [Peptide 10] (Ac-W[Nle]DDEFAAI[Nle]AVHGNRLRELADK-OH) | – | 59.5 ± 0.3 | –
CCCC[C@H](NC(=O)[C@H](Cc1c[nH]c2ccccc12)NC(C)=O)C(=O)N[C@@H](CCCNC(=N)N)C(=O)N[C@@H](CC(N)=O)C(=O)N[C@@H](CCC(N)=O)C(=O)N[C@@H](Cc1ccccc1)C(=O)N[C@@H](C)C(=O)N[C@@H](C)C(=O)N[C@H](C(=O)N[C@@H](CCCC)C(=O)N[C@@H](CCCNC(=N)N)C(=O)N[C@H](C(=O)N[C@@H](Cc1c[nH]cn1)C(=O)NCC(=O)N[C@@H](CC(N)=O)C(=O)N[C@@H](CCC(N)=O)C(=O)N[C@@H](CC(C)C)C(=O)N[C@@H](CCCNC(=N)N)C(=O)N[C@@H](CCC(=O)O)C(=O)N[C@@H](CC(C)C)C(=O)N[C@@H](C)C(=O)N[C@@H](CC(N)=O)C(=O)N[C@@H](CCCCN)C(=O)O)C(C)C)[C@@H](C)CC [Peptide 22] (Ac-W[Nle]RNQFAAI[Nle]RVHGNQLRELANK-OH) | – | 54.7 ± 3.1 | –
CCCC[C@H](NC(=O)[C@H](Cc1c[nH]c2ccccc12)NC(C)=O)C(=O)N[C@@H](CC(=O)O)C(=O)N[C@@H](CC(=O)O)C(=O)N[C@@H](CCCNC(=N)N)C(=O)N[C@@H](Cc1ccccc1)C(=O)N[C@@H](C)C(=O)N[C@@H](C)C(=O)N[C@H](C(=O)N[C@@H](CCCC)C(=O)N[C@@H](C)C(=O)N[C@H](C(=O)N[C@@H](Cc1c[nH]cn1)C(=O)NCC(=O)N[C@@H](CC(N)=O)C(=O)N[C@@H](CCC(=O)O)C(=O)N[C@@H](CC(C)C)C(=O)N[C@@H](CCCNC(=N)N)C(=O)N[C@@H](CCC(=O)O)C(=O)N[C@@H](CC(C)C)C(=O)N[C@@H](C)C(=O)N[C@@H](CC(=O)O)C(=O)N[C@@H](CCCCN)C(=O)O)C(C)C)[C@@H](C)CC [Peptide 4] (Ac-W[Nle]DDRFAAI[Nle]AVHGNELRELADK-OH) | – | 56.8 ± 2.1 | –
CCCC[C@H](NC(=O)[C@H](Cc1c[nH]c2ccccc12)NC(C)=O)C(=O)N[C@@H](CCCNC(=N)N)C(=O)N[C@@H](CCCNC(=N)N)C(=O)N[C@@H](CCC(=O)O)C(=O)N[C@@H](Cc1ccccc1)C(=O)N[C@@H](CCCNC(=N)N)C(=O)N[C@@H](CCCNC(=N)N)C(=O)N[C@H](C(=O)N[C@@H](CCCC)C(=O)N[C@@H](CCCNC(=N)N)C(=O)N[C@H](C(=O)N[C@@H](Cc1c[nH]cn1)C(=O)NCC(=O)N[C@@H](CC(N)=O)C(=O)N[C@@H](CCC(=O)O)C(=O)N[C@@H](CC(C)C)C(=O)N[C@@H](CCCNC(=N)N)C(=O)N[C@@H](CCC(=O)O)C(=O)N[C@@H](CC(C)C)C(=O)N[C@@H](C)C(=O)N[C@@H](CC(=O)O)C(=O)N[C@@H](CCCCN)C(=O)O)C(C)C)[C@@H](C)CC [Peptide 14] (Ac-W[Nle]RREFRRI[Nle]RVHGNELRELADK-OH) | – | 56.0 ± 0.1 | 11–13 °C
CCCC[C@H](NC(=O)[C@H](Cc1c[nH]c2ccccc12)NC(C)=O)C(=O)N[C@@H](CC(=O)O)C(=O)N[C@@H](CC(=O)O)C(=O)N[C@@H](CCC(=O)O)C(=O)N[C@@H](Cc1ccccc1)C(=O)N[C@@H](C)C(=O)N[C@@H](C)C(=O)N[C@H](C(=O)N[C@@H](CCCC)C(=O)N[C@@H](C)C(=O)N[C@@H](CCCNC(=N)N)C(=O)N[C@@H](Cc1c[nH]cn1)C(=O)NCC(=O)N[C@@H](CC(N)=O)C(=O)N[C@@H](CCC(=O)O)C(=O)N[C@@H](CC(C)C)C(=O)N[C@@H](CCCNC(=N)N)C(=O)N[C@@H](CCC(=O)O)C(=O)N[C@@H](CC(C)C)C(=O)N[C@@H](C)C(=O)N[C@@H](CC(=O)O)C(=O)N[C@@H](CCCCN)C(=O)O)[C@@H](C)CC [Peptide 8] (Ac-W[Nle]DDEFAAI[Nle]ARHGNELRELADK-OH) | – | 67.8 ± 0.1 | –
